Test results as given in publication PMC10600247, “Impact of C- and N-terminal protection on the stability, metal chelation and antimicrobial properties of calcitermin” (Scientific Reports, 2023).
Residues, ends and D or L forms follow the SMILES beside them.

How the values were obtained:
C. albicans (ATCC 10231) = test: In vitro antifungal CFU assay; assay type: cell-based, Candida albicans; conditions: pH 5.4; for mean CFU number ± S.D.: per 0.1 mL
Protocol: (§1) All microbes were grown at 37 °C in Tryptic Soy Broth (TSB; Biolife, Milan, Italy) or Tryptic Soy Agar plates (TSA, Biolife, Milan, Italy). Peptides were tested at a final concentration C = 0.128, 0.064, 0.032 mg/mL, in the presence or absence of ZnCl2 or CuCl2, at a M:L molar ratio 0.9:1. Briefly, all the microbes were expanded in TSB at 37 °C under agitation for 12 h and then sub-cultured by 1:10 dilution in TSB under the same conditions until reaching OD600nm = 0.3–0.4, as measured by spectrophotometric reading using a GENESYS 10S UV–Vis spectrophotometer (Thermo Scientific, Milan, Italy), corresponding to 0.9–1.2 × 10^7 colony forming units (CFU) per mL, 1.5–2 × 10^8 CFU/mL and 2.4–3.2 × 10^8 CFU/mL, for C. albicans, S. aureus and E. coli respectively. The cultures were then centrifuged at 4500 rpm for 10 min in a SL 8 centrifuge (TX-150 Rotor) (Thermo Scientific, Milan, Italy), and the cellular pellets were washed with PBS pH 5.4. Pelletized cultures were then suspended in 10 mL of PBS pH 5.4, then the suspensions were diluted to a final concentration of 10^4 CFU/mL. Aliquots of 100 µl (corresponding to 10^3 CFU) were seeded in each well of a 96-wells plate. 3 µl of TSB at pH 5.4 were added to each well to obtain a final 1.5% TSB concentration in the culture medium. Peptides were serially diluted in PBS pH 5.4 to C = 0.257, 0.128, and 0.064 mg/mL. ZnCl2 and CuCl2 solutions were added where requested to obtain a M:L ratio 0.9:1. 100 µl of the prepared peptides ± ZnCl2/CuCl2 solutions were then added to each well, obtaining the final 0.128, 0.064 and 0.032 mg/mL peptide concentrations in a total 0.2 mL volume. PBS alone and PBS + ZnCl2/CuCl2 solutions were included as controls. The plates were incubated at 37 °C on a platform rocker with slow stirring for 3 and 24 h. At the end of the incubation times, 100 µl aliquots were taken from each sample and diluted in PBS pH 5.4 to be seeded on TSA plates. Specifically, aliquots were diluted 1:10 at 3 h, and 1:200, 1:100,000 and 1:10 at 24 h, for C. albicans, E. coli, and S. aureus respectively. After incubation for 24 h at 37 °C, grown CFUs were enumerated. Samples were assayed in triplicate in two independent experiments. Student’s t-test was used for the evaluation of significance in biological tests; a p value ≤ 0.05 was considered significant.

E. coli (ATCC 25922) = test: In vitro anti-E. coli CFU assay; assay type: cell-based, Escherichia coli; conditions: pH 5.4; for mean CFU number ± S.D.: per 0.1 mL
Protocol: as §1

[1] = peptide 0.032 mg/mL + CuCl2 (0.9:1), 3 h
[2] = peptide 0.032 mg/mL + CuCl2 (0.9:1), 24 h
[3] = peptide 0.032 mg/mL + ZnCl2 (0.9:1), 3 h
[4] = peptide 0.032 mg/mL + ZnCl2 (0.9:1), 24 h
[5] = peptide 0.064 mg/mL + CuCl2 (0.9:1), 3 h
[6] = peptide 0.064 mg/mL + CuCl2 (0.9:1), 24 h
[7] = peptide 0.064 mg/mL + ZnCl2 (0.9:1), 3 h
[8] = peptide 0.064 mg/mL + ZnCl2 (0.9:1), 24 h
[9] = peptide 0.128 mg/mL + CuCl2 (0.9:1), 3 h
[10] = peptide 0.128 mg/mL + CuCl2 (0.9:1), 24 h
[11] = peptide 0.128 mg/mL + ZnCl2 (0.9:1), 3 h
[12] = peptide 0.128 mg/mL + ZnCl2 (0.9:1), 24 h
[13] = peptide alone 0.032 mg/mL, 24 h
[14] = peptide alone 0.064 mg/mL, 24 h
[15] = peptide alone 0.128 mg/mL, 24 h

**Q.** Which “CFU decrease/increase with respect to untreated controls” value (“CFU decrease/increase” below) (C. albicans (ATCC 10231); [1]) does the source give for `CC[C@H](C)[C@H](NC(=O)[C@H](C)NC(=O)[C@@H](NC(C)=O)C(C)C)C(=O)N[C@@H](C)C(=O)N[C@@H](CC(C)C)C(=O)N[C@@H](CCCCN)C(=O)N[C@@H](C)C(=O)N[C@@H](C)C(=O)N[C@@H](Cc1c[nH]cn1)C(=O)N[C@@H](Cc1ccc(O)cc1)C(=O)N[C@@H](Cc1c[nH]cn1)C(=O)N[C@H](C(=O)N[C@@H](Cc1c[nH]cn1)C(=O)N[C@@H](CCCCN)C(=O)N[C@@H](CCC(=O)O)C(N)=O)[C@@H](C)O` [L2, Ac-VAIALKAAHYHTHKE-NH2] (Ac-VAIALKAAHYHTHKE-NH2) here?
**A.** +9.3%

**Q.** What about the “mean CFU number ± S.D.” value (C. albicans (ATCC 10231); [1]) of the same compound?
**A.** 153 ± 26 CFU

**Q.** And the “CFU decrease/increase” value (C. albicans (ATCC 10231); [2])?
**A.** +16%

**Q.** What about the “mean CFU number ± S.D.” value (C. albicans (ATCC 10231); [2]) of the same compound?
**A.** 1,908 ± 83 CFU

**Q.** And the “CFU decrease/increase” value (C. albicans (ATCC 10231); [3])?
**A.** -7.8%

**Q.** And the “mean CFU number ± S.D.” value (C. albicans (ATCC 10231); [3])?
**A.** 129 ± 17 CFU

**Q.** What about the “CFU decrease/increase” value (C. albicans (ATCC 10231); [4]) of the same compound?
**A.** +14%

**Q.** And the “mean CFU number ± S.D.” value (C. albicans (ATCC 10231); [4])?
**A.** 1,873 ± 83 CFU

**Q.** And the “CFU decrease/increase” value (C. albicans (ATCC 10231); [5])?
**A.** +29%

**Q.** What about the “mean CFU number ± S.D.” value (C. albicans (ATCC 10231); [5]) of the same compound?
**A.** 180 ± 81 CFU

**Q.** And the “mean CFU number ± S.D.” value (C. albicans (ATCC 10231); [6])?
**A.** 1,360 ± 140 CFU

**Q.** And the “CFU decrease/increase” value (C. albicans (ATCC 10231); [7])?
**A.** -44%

**Q.** What about the “mean CFU number ± S.D.” value (C. albicans (ATCC 10231); [7]) of the same compound?
**A.** 79 ± 18 CFU

**Q.** What about the “mean CFU number ± S.D.” value (C. albicans (ATCC 10231); [8]) of the same compound?
**A.** 881 ± 99 CFU

**Q.** What about the “CFU decrease/increase” value (C. albicans (ATCC 10231); [9]) of the same compound?
**A.** -7%

**Q.** And the “mean CFU number ± S.D.” value (C. albicans (ATCC 10231); [9])?
**A.** 130 ± 29 CFU

**Q.** And the “mean CFU number ± S.D.” value (C. albicans (ATCC 10231); [10])?
**A.** 1,256 ± 129 CFU

**Q.** And the “mean CFU number ± S.D.” value (C. albicans (ATCC 10231); [11])?
**A.** 36 ± 15 CFU

**Q.** What about the “mean CFU number ± S.D.” value (C. albicans (ATCC 10231); [12]) of the same compound?
**A.** 50 ± 29 CFU

**Q.** What about the “CFU decrease/increase” value (C. albicans (ATCC 10231); peptide alone 0.032 mg/mL, 3 h) of the same compound?
**A.** +51%

**Q.** And the “mean CFU number ± S.D.” value (C. albicans (ATCC 10231); peptide alone 0.032 mg/mL, 3 h)?
**A.** 211 ± 25 CFU

**Q.** And the “CFU decrease/increase” value (C. albicans (ATCC 10231); [13])?
**A.** -5%

**Q.** What about the “mean CFU number ± S.D.” value (C. albicans (ATCC 10231); [13]) of the same compound?
**A.** 1,563 ± 72 CFU

**Q.** What about the “CFU decrease/increase” value (C. albicans (ATCC 10231); peptide alone 0.064 mg/mL, 3 h) of the same compound?
**A.** +20%

**Q.** And the “mean CFU number ± S.D.” value (C. albicans (ATCC 10231); peptide alone 0.064 mg/mL, 3 h)?
**A.** 168 ± 14 CFU

**Q.** What about the “CFU decrease/increase” value (C. albicans (ATCC 10231); [14]) of the same compound?
**A.** -10%

**Q.** And the “mean CFU number ± S.D.” value (C. albicans (ATCC 10231); [14])?
**A.** 1,480 ± 198 CFU

**Q.** And the “CFU decrease/increase” value (C. albicans (ATCC 10231); peptide alone 0.128 mg/mL, 3 h)?
**A.** +5.7%

**Q.** What about the “mean CFU number ± S.D.” value (C. albicans (ATCC 10231); peptide alone 0.128 mg/mL, 3 h) of the same compound?
**A.** 148 ± 24 CFU

**Q.** What about the “CFU decrease/increase” value (C. albicans (ATCC 10231); [15]) of the same compound?
**A.** +6%

**Q.** What about the “mean CFU number ± S.D.” value (C. albicans (ATCC 10231); [15]) of the same compound?
**A.** 1,732 ± 249 CFU

**Q.** What about the “mean CFU number ± S.D.” value (E. coli (ATCC 25922); [1]) of the same compound?
**A.** 467 ± 19 CFU

**Q.** And the “CFU decrease/increase” value (E. coli (ATCC 25922); [2])?
**A.** -2.9%

**Q.** What about the “mean CFU number ± S.D.” value (E. coli (ATCC 25922); [2]) of the same compound?
**A.** 167 ± 37 CFU

**Q.** And the “mean CFU number ± S.D.” value (E. coli (ATCC 25922); [3])?
**A.** 378 ± 8 CFU

**Q.** What about the “CFU decrease/increase” value (E. coli (ATCC 25922); [4]) of the same compound?
**A.** -12.7%

**Q.** What about the “mean CFU number ± S.D.” value (E. coli (ATCC 25922); [4]) of the same compound?
**A.** 150 ± 4 CFU

**Q.** And the “mean CFU number ± S.D.” value (E. coli (ATCC 25922); [5])?
**A.** 371 ± 54 CFU

**Q.** What about the “CFU decrease/increase” value (E. coli (ATCC 25922); [6]) of the same compound?
**A.** -2.9%

**Q.** And the “mean CFU number ± S.D.” value (E. coli (ATCC 25922); [6])?
**A.** 167 ± 12 CFU

**Q.** And the “mean CFU number ± S.D.” value (E. coli (ATCC 25922); [7])?
**A.** 248 ± 88 CFU

**Q.** And the “CFU decrease/increase” value (E. coli (ATCC 25922); [8])?
**A.** -15.1%

**Q.** And the “mean CFU number ± S.D.” value (E. coli (ATCC 25922); [8])?
**A.** 146 ± 6 CFU

**Q.** And the “mean CFU number ± S.D.” value (E. coli (ATCC 25922); [9])?
**A.** 190 ± 15 CFU

**Q.** And the “CFU decrease/increase” value (E. coli (ATCC 25922); [10])?
**A.** -21%

**Q.** And the “mean CFU number ± S.D.” value (E. coli (ATCC 25922); [10])?
**A.** 136 ± 25 CFU

**Q.** And the “mean CFU number ± S.D.” value (E. coli (ATCC 25922); [11])?
**A.** 44 ± 4 CFU

**Q.** What about the “CFU decrease/increase” value (E. coli (ATCC 25922); [12]) of the same compound?
**A.** -8.1%

**Q.** And the “mean CFU number ± S.D.” value (E. coli (ATCC 25922); [12])?
**A.** 158 ± 18 CFU

**Q.** And the “CFU decrease/increase” value (E. coli (ATCC 25922); peptide alone 0.032 mg/mL, 3 h)?
**A.** -1%

**Q.** And the “mean CFU number ± S.D.” value (E. coli (ATCC 25922); peptide alone 0.032 mg/mL, 3 h)?
**A.** 1,037 ± 161 CFU

**Q.** And the “CFU decrease/increase” value (E. coli (ATCC 25922); [13])?
**A.** +9%

**Q.** What about the “mean CFU number ± S.D.” value (E. coli (ATCC 25922); [13]) of the same compound?
**A.** 187 ± 11 CFU

**Q.** What about the “CFU decrease/increase” value (E. coli (ATCC 25922); peptide alone 0.064 mg/mL, 3 h) of the same compound?
**A.** -2%

**Q.** And the “mean CFU number ± S.D.” value (E. coli (ATCC 25922); peptide alone 0.064 mg/mL, 3 h)?
**A.** 1031 ± 83 CFU

**Q.** And the “CFU decrease/increase” value (E. coli (ATCC 25922); [14])?
**A.** +8%

**Q.** What about the “mean CFU number ± S.D.” value (E. coli (ATCC 25922); [14]) of the same compound?
**A.** 186 ± 14 CFU

**Q.** What about the “CFU decrease/increase” value (E. coli (ATCC 25922); peptide alone 0.128 mg/mL, 3 h) of the same compound?
**A.** -19%

**Q.** What about the “mean CFU number ± S.D.” value (E. coli (ATCC 25922); peptide alone 0.128 mg/mL, 3 h) of the same compound?
**A.** 845 ± 55 CFU

**Q.** And the “CFU decrease/increase” value (E. coli (ATCC 25922); [15])?
**A.** -3%

**Q.** What about the “mean CFU number ± S.D.” value (E. coli (ATCC 25922); [15]) of the same compound?
**A.** 166 ± 20 CFU
